Laboratory results published in patent US20240142458A1, “FLUORESCENT PROBES FOR QUANTIFICATION OF FREE COPPER” (TECHNISCHE UNIVERSITÄT BERLIN, priority 2020, published 2024).

Key:
[1] = Metal-dependent changes of absorbance and fluorescence properties, cell-free; details: isopropyl diester, phosphonate blocked for metal binding
Description: FIG. 1: Metal-dependent changes of p-H8TPPA absorbance and fluorescence properties. • 10 μM p-H8TPPA dilutions were treated with various metal solutions (final concentration 40 μM) before recording (A) absorbance, (B) fluorescence excitation (⋅Em.650 nm) and (C) fluorescence emission (⋅⋅Exc.415 nm) spectra. Data are representative for three independent experiments.
FIG. 3: Metal-dependent changes of m-H8TPPA absorbance and fluorescence properties. • 10 μM m-H8TPPA dilutions were treated with various metal solutions (final concentration 40 μM) before recording (A) absorbance, (B) fluorescence excitation (⋅Em.650 nm) and (C) fluorescence emission (⋅⋅Exc.415 nm) spectra. Data are representative for three independent experiments.
Aiming to use arylphosphonate-tethered porphyrins as real-time cellular metal fluorescence sensors, we first characterized their metal-responsiveness under cell-free conditions. p-H8TPPA (see FIG. 1) and m-H8TPPA (see FIG. 3), were pretreated with various bivalent metal ions at a pH close to the cellular milieu (pH 7.4) before recording absorption and fluorescence spectra. […] Following Co^2+ treatment absorption spectra were less intense, plateau-shaped with a bathochromic broadening up to 434 nm. Hg^2+-treatment red-shifted the Soret band by approximately 30 nm. […] Despite of their restricted fluorescence intensity, the fluorescence emission patterns of all the aforementioned metal-treated arylphosphonate-tethered porphyrins seemed to be […] almost indistinguishable from the buffer-controls (see FIG. 1C, FIGS. 2 and 4). Zn^2+ treatment led to a declined and much more broadened Soret band in the range of 380-430 nm (see FIG. 1A). […] Thus, we assume a fluorescence quenching effect of Zn^2+ that requires further investigation.
Absorption spectra were recorded with a Tecan Infinite M200 Reader (Tecan Austria GmbH, Grödig/Salzburg, Switzerland) from 350 to 500 nm. The same device was used in fluorescence mode to measure fluorescence excitation ([…]; ⋅⋅Em. 650 nm) and fluorescence emission (550-850 nm; ⋅⋅Exc. 415 nm) spectra. 3D scanning was performed on a Spark® multimode microplate reader (Tecan Austria GmbH, Grodig/Salzburg, Switzerland) from 350 to 450 nm (Exc.) and 555 to 850 nm (Em.) with a 5 nm step size, excitation and emission bandwidths of 5 nm, and a detector gain of 100. A typical reaction mix was made by combining equal volumes of 20 μM phosphonate porphyrins diluted in assay-buffer (50 mM HEPES in bidistilled water adjusted to […] with sodium hydroxide solution; depleted of multivalent cations with Chelex® 100 Resin pretreatment^51) and a double-concentrated metal cation solution. Following 30 min incubations at 37° C. absorption or fluorescence measurements were done. For redox conversion tests the CuSO4 solutions were pretreated with 500 μM of L-ascorbic acid before admixing into the phosphonate porphyrin dilutions. To evaluate the effect of metal chelators, the metal cation-treated incubation mixtures were posttreated with 50 equivalents of EDTA or EGTA for 15 min before fluorescence emission readout.

Caco-2 cells = assay: Fluorescence labeling of Caco-2 enterocytes (emission spectra, confocal imaging); type: cell-based, human
Description: FIG. 2: Caco-2 fluorescence labeling with Phenylphosphonate-substituted porphyrines. • Caco-2 cells were incubated with increasing concentrations of p-H8TPPA or m-H8TPPA followed by fluorescence measurement (⋅Exc/Em.416 nm/650 nm). Data are means±S.E.M. of n=3 independent experiments.
FIG. 5: Fluorescence labeling of Caco-2 enterocytes by phenylphosphonate-substituted porphyrines. • Fluorescence emission spectra of Caco-2 cells exposed to p-H8TPPA, m-H8TPPA (A) or the isopropyl-modified phosphonate p-H8TPPA-iPr8 (C) in comparison with each of the phenylphosphonate porphyrins as 10 μM dilution in assay buffer (⋅Exc416 nm). (B) Confocal images of Caco-2 upon loading with p-H8TPPA or m-H8TPPA. (D) Confocal images of p-H8TPPA-iPr8 in the presence or absence of Caco-2 cells. Scale bar=10 μm. Data are representative for three independent experiments.
The human intestinal cell line Caco-2 (European Collection of Cell Cultures, Porton Down, UK) were routinely cultured at 37° C., 5% CO2 and humidified atmosphere in Dulbecco's Modified Eagles Medium (DMEM), containing 10% fetal calf serum (FCS) 100 U/mL penicillin and 100 μg/ml streptomycin. For cellular phosphonate porphyrins experiments, Caco-2 cells were transferred into 96 wells (initially seeding 5000 cells per well) and cultured for 14 days for differentiation into an enterocyte-like monolayer^53,54. For phosphonate labeling, differentiated cells were treated with either m-H8TPPA, p-H8TPPA or p-H8TPPA-iPr8 in a HEPES-based incubation buffer (10 mM HEPES, pH 7.35, 120 mM NaCl, 5.4 mM KCl, 5 mM glucose, 1.3 mM CaCl2, 1 mM MgCl2, 1 mM NaH2PO4, 0.3% bovine serum albumin) for […] Excess fluorescent dye was removed by multiple washing steps before fluorescence emission scanning using 416 nm excitation (Tecan Infinite M200 reader; Tecan, Grödig/Salzburg, […]). To analyze metal responsiveness of the intracellular phosphonate porphyrins, cells were post-treated with 50 μM of different metal solutions at 37° C. in an albumin-free incubation buffer in a time-course experiment.
Fluorescence images of phosphonate porphyrin-labeled Caco-2 enterocytes were acquired on a Leica TCS SP8 laser scanning confocal microscope equipped with LAS X 3.5.5.19976 software platform, using a HC PL APO CS2 63×/1.20 water objective. The filters settings were[…]Exc488 nm/[…]Em580 nm; pinhole 111.5 μm, pinhole size 1 AU.

[2] = Solubility in aqueous media with detergent pluronic; type: physicochemical; details: pluronic F-127

CC(C)OP(=O)(OC(C)C)c1ccc(-c2c3nc(c(-c4ccc(P(=O)(OC(C)C)OC(C)C)cc4)c4ccc([nH]4)c(-c4ccc(P(=O)(OC(C)C)OC(C)C)cc4)c4nc(c(-c5ccc(P(=O)(OC(C)C)OC(C)C)cc5)c5ccc2[nH]5)C=C4)C=C3)cc1 [p-H8TPPA-iPr8, 5,10,15,20-tetrakis[p-(diisopropoxyphosphoryl)phenyl] porphyrin]
fluorescence change upon metal binding [1]: no fluorescence change
passage of the cellular membrane / cellular uptake (Caco-2 cells; Caco-2 cells, fluorescence spectra and confocal imaging): inaccessible for cellular uptake
microcrystal size in confocal microscopy pictures (Caco-2 cells; incubation buffer, with or without Caco-2 cells): ~20 μm
effect of detergent pluronic on solubility in aqueous media [2]: did not improve the solubility
